# Entries after “also recorded” stand apart in the source; their conditions may differ.
# Experiments:
# [1] = system: differentiated human airway epithelia; format: cell-based; conditions: VSV-G pseudotyped HIV-based lentivirus
# lung = assay: Lung morphology (H & E) 1 wk after EGTA/water instillation; format: in vivo, rat
# Experimental: Preliminary studies were performed in rats to test the feasibility of using hypotonic solutions with EGTA to increase transepithelial permeability in vivo. 3 wk old rats were tracheotomized and a small caliber PE catheter inserted into the left lobe of the lung. 100 μl of 3 or 12 mM EGTA in water or PBS was mixed with […] fluorescent beads (a marker for viral particles) and instilled into the lungs. One hour later the animals were sacrificed and lung, tissue sections examined under fluorescence microscopy to determine if the fluorescent beads penetrated the epithelial layer. In the PBS control animal, fluorescent particles were only noted in the airway lunen. […] It also was asked if animals treated with EGTA/H2O developed changes in lung morphology. Animals received PBS or 12, 60, or 120 mM EGTA/water into the left lobe of the lung and 1 wk later were sacrificed and H & E stained lung tissues examined.
# [2] = system: differentiated human airway epithelia; assay: Confocal (latex beads) and transmission electron microscopy of epithelial junctions after EGTA; format: cell-based; conditions: 1 hr
# Experimental: Ten micromoles of CMFDA (5-chloromethylfluorescein diacetate; Molecular Probes, Eugene, Oreg.) were added to the basal medium overnight to label cells (Knecht and Shelden, 1995; Stewart and Deacon, 1995). 100 nm latex beads (1×10^9 particles, Sigma, St. Louis, Mo.) were mixed with 12 mM hypotonic EGTA solution at a 1:1 ratio. The suspension was applied to the apical surface of KGF-stimulated epithelia for 1 hr. The epithelia were then washed with PBS 4-5 times for 20 min and then fixed in 4% paraformaldehyde/PBS for 20 min. The cell filter membranes were removed, mounted on slides, and examined under a confocal microscope (MRC 1024, Bio-Rad).
# Transmission electron microscopy was used to study cell morphology following treatment with a 6 mM EGTA in hypotonic buffer for 1 hr. Differentiated human airway epithelia were fixed in 2.5% glutaraldehyde (0.1 M sodium cacodylate buffer, pH 7.4) overnight at 4° C., and then post-fixed with 1% osmium tetroxide for 1 hr. Following serial alcohol dehydration, samples were embedded in Eponate 12 (Ted Pella, Inc., Redding, Calif.). Sectioning and post-staining were performed using routine methods (see “Electron Microscopy: Principles and Techniques for Biologists,” Jones and Bartlett Publishers, Sudbury, Mass., 1998). Samples were examined under a Hitachi H-7000 transmission electron microscope. […]
# [3] = system: differentiated human airway epithelia; assay: Transepithelial resistance of KGF-treated airway epithelia with Ca2+ chelators; format: cell-based; conditions: 6 mM chelator, isotonic (220 mmol/kg)
# Experimental: Differentiated epithelial cells were treated with 100 ng/ml KGF for 24 hr. Different concentrations of each calcium chelator in HEPES/HCl (pH 7.4) or in isotonic HEPES/saline (pH 7.4) buffer were mixed with vector buffer and applied to the apical surface for times as specified (Wang et al., 1998). Transepithelial resistance was measured with an Ohmmeter (EVOM; World Precision Instruments, Inc. Sarasota, Fla.) by adding cell culture media to the apical surface and the values were compared to untreated controls.
# To understand whether the tonicity of the vector solution affects epithelial permeability and gene transfer efficiency, hypotonic (40 mmol/kg) or isotonic (220 mmol/kg) solutions of 6 mM EGTA, EDTA or BAPTA were added to the MuLV vector buffer and applied to the apical surface of differentiated airway epithelial cells pre-treated with KGF. At specific time intervals, transepithelial resistance (R1) was measured using an Ohmmeter.
# [4] = system: rabbit tracheal epithelium; assay: Tracheal transepithelial voltage (Vt) in anesthetized rabbits; format: in vivo
# Experimental: Rabbit studies. The transepithelial electrical potential difference across the rabbit tracheal epithelium (Vt) was measured using a modification of previously described methods (Zabner et al., 1996). The reference electrode was a subcutaneous needle connected with sterile normal saline solution to a silver/silver chloride pellet. Adult New Zealand white rabbits (n=4/group) were anesthetized with 32 mg/kg ketamine, 5.1 mg/kg xylazine and 0.8 mg/kg acepromazine intramuscularly and placed with the head in the dependent position. An exploring electrode (pediatric size 8 Teflon-coated latex double lumen Foley catheter, modified Ruseh, Inc., Duluth, Ga.) was inserted into the tracheal lumen via a tracheotomy incision. One lumen of the catheter was filled with sterile normal saline solution and was connected to a silver/silver chloride pellet. Voltage was measured with a voltmeter connected to a strip chart recorder. The catheter was then left in that position for the entire recording period. The solutions were administered through the second lumen in the following order: 1) Normal saline for 5 min; 2) Sterile water with 10 mM EGTA for 10 min; 3) Normal saline with 10 mM EGTA for 5 min; and 4) Normal saline with 10 mM EGTA plus 100 μM amiloride for 5 min. Measurements of Vt were read by two investigators who were blinded to the treatment received. There wre no discrepancies in readings of greater than 2 mV between the investigators. Disruption of epithelial junctions was assessed by detecting a fall in […] Vt after perfusion with the chelator, and by the loss of amiloride-sensitive Vt after perfusion with the chelator solution.
structure (smiles),measurement,setting,value
O=C(O)CN(CCOCCOCCN(CC(=O)O)CC(=O)O)CC(=O)O [EGTA],"gene transfer, apical surface of quiescent cells with EGTA/hypotonic buffer",[1],gene transfer was enhanced
same,lung morphology,lung; 120 mM EGTA,thickening of the interstitial space was noted
same,lung morphology,lung; 12 or 60 mM EGTA/water,morphology similar to the control
same,width of intercellular gap (TEM),[2]; 6 mM EGTA in hypotonic buffer,~500 nm
same,intercellular spaces and deposition of 100 nm beads,"[2]; hypotonic 6 mM EGTA, apical",caused a widening of the intercellular spaces and facilitated deposition of beads in the paracellular space
same,time required to decrease R1 to ~20% of the controls,[3],Sixty
same,amiloride-sensitive Vt after hypotonic/EGTA treatment,[4]; 100 μM amiloride,there was no residual amiloride-sensitive Vt; also recorded: amiloride had no effect on Vt
same,tracheal Vt,[4]; hypotonic solution with 10 mM EGTA then saline with 10 mM EGTA,caused a significant fall in Vt

# Reference: patent US6855549B1, “Methods and compositions for increasing the infectivity of gene transfer vectors” (The University of Iowa Research Foundation, priority 1998, dated 2005)
